PubChem BioAssay (NCI)
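Cultured in 96-well plates, cells were exposed to test compound for 48 hours across five concentrations. At the GI50, growth is halved. The concentration for full growth arrest is given as TGI.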

Tested on: NCI-H23 lung
Assay: inhibition of tumour cell growth, NCI panel, 48 h

Structure (SMILES)	TGI
O=C(/C=C/c1c(O)ccc2ccccc12)c1ccc2ccccc2c1	> 100 µM
CCOC(=O)C1N(S(=O)(=O)c2ccc(C)cc2)CCC12C(c1ccc(OC)cc1)NC1CCCCC12 (stereo not drawn)	> 100 µM
COc1ccccc1NC(=O)C1=C(C)NC(C)=C(C(=O)Nc2ccccc2OC)C1c1ccc([N+](=O)[O-])cc1	> 100 µM
O=C(CSc1nnc(-c2ccccc2NC(=O)C(F)(F)F)c(=O)[nH]1)NC(=O)Nc1ccccc1	> 100 µM
COC(=O)/C=C/C1C(C(=O)OC)C2(C(=O)OC)CCC1(C(=O)OC)N2 (stereo not drawn)	> 100 µM
CC(C)(C)N1CC2(CCCCC2)C1=O	> 100 µM
COc1ccc(C(=O)C(CO)Oc2ccccc2OC)cc1OC (stereo not drawn)	> 100 µM
N#CC(/C(=N/NC(=O)C(=O)NN)C(=O)NC12CC3CC(CC(C3)C1)C2)c1ccccc1 (stereo not drawn)	> 100 µM
CN=NN(C)C(=O)NC	> 100 µM
CCOC(=O)CCc1c(C)c2c(OC(C)=O)cc(OC(C)=O)cc2oc1=O	> 100 µM
O=C(CN1CCCCC1)N1CCc2c([nH]c3ccccc23)C1c1cccnc1 (stereo not drawn)	> 100 µM
O=C(/C=C/c1ccccc1)/C=C/c1ccccc1	82.4 µM
N#C/C(=C\c1ccc(O)c(O)c1)C(N)=O	93.8 µM
N#CC(C#N)=c1[nH]c2cccc3c2-c2c(cccc2c3=C(C#N)C#N)[nH]1	> 100 µM

Tested on: RPMI-8226 leukemia
Assay: inhibition of tumour cell growth, NCI panel, 48 h

Structure (SMILES)	TGI	GI50
O=S(O)CCCCSSCc1ccccc1CSSCCCCS(=O)O	45.8 µM	–
O=C(Nc1ccc([N+](=O)[O-])cc1)C1C(=O)C(=O)N(c2ccc([N+](=O)[O-])cc2)C1=O (stereo not drawn)	> 100 µM	–
Cc1cn2c(/C=C3/C(=O)Nc4ccccc43)c(-c3ccc(Cl)cc3)nc2s1	39.2 µM	12.3 µM
O=C(CCC/C(CC(=O)c1ccc(Br)cc1)=N\O)Nc1ccccc1	> 100 µM	–
O=C(/C=C/c1c(O)ccc2ccccc12)c1ccc2ccccc2c1	> 100 µM	–
CCOC(=O)C1N(S(=O)(=O)c2ccc(C)cc2)CCC12C(c1ccc(OC)cc1)NC1CCCCC12 (stereo not drawn)	> 100 µM	–
COc1ccccc1NC(=O)C1=C(C)NC(C)=C(C(=O)Nc2ccccc2OC)C1c1ccc([N+](=O)[O-])cc1	> 100 µM	–
COC(=O)/C=C/C1C(C(=O)OC)C2(C(=O)OC)CCC1(C(=O)OC)N2 (stereo not drawn)	> 100 µM	–
CC(C)(C)N1CC2(CCCCC2)C1=O	> 100 µM	–
COc1ccc(C(=O)C(CO)Oc2ccccc2OC)cc1OC (stereo not drawn)	> 100 µM	–
N#CC(/C(=N/NC(=O)C(=O)NN)C(=O)NC12CC3CC(CC(C3)C1)C2)c1ccccc1 (stereo not drawn)	> 100 µM	–
CC(C)(C)C(=O)/C=C/c1ccc(Oc2ccccc2)cc1	29.3 µM	–
CN=NN(C)C(=O)NC	> 100 µM	–
O=C(CN1CCCCC1)N1CCc2c([nH]c3ccccc23)C1c1cccnc1 (stereo not drawn)	> 100 µM	–
O=C(/C=C/c1ccccc1)/C=C/c1ccccc1	> 100 µM	–
N#C/C(=C\c1ccc(O)c(O)c1)C(N)=O	> 100 µM	–
N#CC(C#N)=c1[nH]c2cccc3c2-c2c(cccc2c3=C(C#N)C#N)[nH]1	> 100 µM	–

Tested on: NCI-H522 lung
Assay: inhibition of tumour cell growth, NCI panel, 48 h

Structure (SMILES)	TGI	GI50
O=S(O)CCCCSSCc1ccccc1CSSCCCCS(=O)O	18.7 µM	–
CCOC(=O)c1[nH]c(COC(C)=O)c(CCCOC(C)=O)c1CCCOC(C)=O	52.5 µM	–
O=C(Nc1ccc([N+](=O)[O-])cc1)C1C(=O)C(=O)N(c2ccc([N+](=O)[O-])cc2)C1=O (stereo not drawn)	> 100 µM	–
Cc1cn2c(/C=C3/C(=O)Nc4ccccc43)c(-c3ccc(Cl)cc3)nc2s1	19.5 µM	9.01 µM
O=C(/C=C/c1c(O)ccc2ccccc12)c1ccc2ccccc2c1	> 100 µM	–
CCOC(=O)C1N(S(=O)(=O)c2ccc(C)cc2)CCC12C(c1ccc(OC)cc1)NC1CCCCC12 (stereo not drawn)	> 100 µM	–
COc1ccccc1NC(=O)C1=C(C)NC(C)=C(C(=O)Nc2ccccc2OC)C1c1ccc([N+](=O)[O-])cc1	> 100 µM	–
O=C(CSc1nnc(-c2ccccc2NC(=O)C(F)(F)F)c(=O)[nH]1)NC(=O)Nc1ccccc1	> 100 µM	–
COC(=O)/C=C/C1C(C(=O)OC)C2(C(=O)OC)CCC1(C(=O)OC)N2 (stereo not drawn)	> 100 µM	–
CC(C)(C)N1CC2(CCCCC2)C1=O	> 100 µM	–
COc1ccc(C(=O)C(CO)Oc2ccccc2OC)cc1OC (stereo not drawn)	> 100 µM	–
N#CC(/C(=N/NC(=O)C(=O)NN)C(=O)NC12CC3CC(CC(C3)C1)C2)c1ccccc1 (stereo not drawn)	> 100 µM	–
CC(C)(C)C(=O)/C=C/c1ccc(Oc2ccccc2)cc1	24.1 µM	–
CN=NN(C)C(=O)NC	> 100 µM	–
CCOC(=O)CCc1c(C)c2c(OC(C)=O)cc(OC(C)=O)cc2oc1=O	> 100 µM	–
O=C(CN1CCCCC1)N1CCc2c([nH]c3ccccc23)C1c1cccnc1 (stereo not drawn)	> 100 µM	–
N#C/C(=C\c1ccc(O)c(O)c1)C(N)=O	53.3 µM	–
N#CC(C#N)=c1[nH]c2cccc3c2-c2c(cccc2c3=C(C#N)C#N)[nH]1	> 100 µM	–

Tested on: OVCAR-4 ovarian
Assay: inhibition of tumour cell growth, NCI panel, 48 h

Structure (SMILES)	TGI
O=S(O)CCCCSSCc1ccccc1CSSCCCCS(=O)O	18.3 µM
CCOC(=O)c1[nH]c(COC(C)=O)c(CCCOC(C)=O)c1CCCOC(C)=O	> 100 µM
O=C(CCC/C(CC(=O)c1ccc(Br)cc1)=N\O)Nc1ccccc1	> 100 µM
O=C(/C=C/c1c(O)ccc2ccccc12)c1ccc2ccccc2c1	> 100 µM
CCOC(=O)C1N(S(=O)(=O)c2ccc(C)cc2)CCC12C(c1ccc(OC)cc1)NC1CCCCC12 (stereo not drawn)	> 100 µM
COc1ccccc1NC(=O)C1=C(C)NC(C)=C(C(=O)Nc2ccccc2OC)C1c1ccc([N+](=O)[O-])cc1	> 100 µM
COC(=O)/C=C/C1C(C(=O)OC)C2(C(=O)OC)CCC1(C(=O)OC)N2 (stereo not drawn)	> 100 µM
CC(C)(C)N1CC2(CCCCC2)C1=O	> 100 µM
COc1ccc(C(=O)C(CO)Oc2ccccc2OC)cc1OC (stereo not drawn)	> 100 µM
N#CC(/C(=N/NC(=O)C(=O)NN)C(=O)NC12CC3CC(CC(C3)C1)C2)c1ccccc1 (stereo not drawn)	> 100 µM
CN=NN(C)C(=O)NC	> 100 µM
CCOC(=O)CCc1c(C)c2c(OC(C)=O)cc(OC(C)=O)cc2oc1=O	> 100 µM
O=C(CN1CCCCC1)N1CCc2c([nH]c3ccccc23)C1c1cccnc1 (stereo not drawn)	> 100 µM
O=C(/C=C/c1ccccc1)/C=C/c1ccccc1	53.2 µM
N#C/C(=C\c1ccc(O)c(O)c1)C(N)=O	> 100 µM
N#CC(C#N)=c1[nH]c2cccc3c2-c2c(cccc2c3=C(C#N)C#N)[nH]1	> 100 µM

Tested on: SK-MEL-5 melanoma
Assay: inhibition of tumour cell growth, NCI panel, 48 h

Structure (SMILES)	TGI	GI50
O=S(O)CCCCSSCc1ccccc1CSSCCCCS(=O)O	23.2 µM	–
O=C(Nc1ccc([N+](=O)[O-])cc1)C1C(=O)C(=O)N(c2ccc([N+](=O)[O-])cc2)C1=O (stereo not drawn)	> 100 µM	–
Cc1cn2c(/C=C3/C(=O)Nc4ccccc43)c(-c3ccc(Cl)cc3)nc2s1	16 µM	9.06 µM
O=C(CCC/C(CC(=O)c1ccc(Br)cc1)=N\O)Nc1ccccc1	> 100 µM	–
CCOC(=O)C1N(S(=O)(=O)c2ccc(C)cc2)CCC12C(c1ccc(OC)cc1)NC1CCCCC12 (stereo not drawn)	> 100 µM	–
COc1ccccc1NC(=O)C1=C(C)NC(C)=C(C(=O)Nc2ccccc2OC)C1c1ccc([N+](=O)[O-])cc1	> 100 µM	–
COC(=O)/C=C/C1C(C(=O)OC)C2(C(=O)OC)CCC1(C(=O)OC)N2 (stereo not drawn)	> 100 µM	–
CC(C)(C)N1CC2(CCCCC2)C1=O	> 100 µM	–
COc1ccc(C(=O)C(CO)Oc2ccccc2OC)cc1OC (stereo not drawn)	> 100 µM	–
N#CC(/C(=N/NC(=O)C(=O)NN)C(=O)NC12CC3CC(CC(C3)C1)C2)c1ccccc1 (stereo not drawn)	> 100 µM	–
CC(C)(C)C(=O)/C=C/c1ccc(Oc2ccccc2)cc1	32.5 µM	–
CN=NN(C)C(=O)NC	> 100 µM	–
O=C(CN1CCCCC1)N1CCc2c([nH]c3ccccc23)C1c1cccnc1 (stereo not drawn)	> 100 µM	–
O=C(/C=C/c1ccccc1)/C=C/c1ccccc1	> 100 µM	–
N#CC(C#N)=c1[nH]c2cccc3c2-c2c(cccc2c3=C(C#N)C#N)[nH]1	> 100 µM	–
